# Reference: patent US8124637B2, “Anthra [1, 2-d]imidazole-6,11-dione derivatives, preparation method and application thereof” (National Defense Medical Center, priority 2010, dated 2012)
# Read-outs that look alike come from different tables or passages of the source.
# What was measured:
# [1] = tested on: hTERT promoter (PhTERT) expression; assay: SEAP assay (PhTERT-SEAP reporter, H1299); assay type: cell-based, human; details: for activity at 1 µM / activity at 10 µM / activity at 100 µM: Homo sapiens, NCI-H1299, PhTERT-SEAP (H1299); for activity at 1 µM: read-out: Relative SEAP activity (%); for activity at 10 µM / activity at 100 µM: read-out: Relative SEAP activity (%) (converted); for Relative SEAP activity (%): PhTERT-SEAP (H1299)
# Procedure: H1299 were grown in RPMI 1640 media supplemented with 10% fetal bovine serum, 100 units/mL penicillin and […] streptomycin in a humidified atmosphere with 5% CO2 at 37° C. Culture media were changed every three days. To establish stable cell lines that the expression of hTERT could be monitored by a reporter system, a about 3.3 kbp DNA fragment ranging from −3338 to +1 bp of the hTERT gene (hTERT promoter, PhTERT) was subcloned upstream to a secreted alkaline phosphatase gene (SEAP) and transfected into H1299 bp electroporation. The stable clones were selected using G418. The stable clones derived from H1299 were cultured using conditions that are similar to their parental cells.
# Secreted alkaline phosphatase was used as the reporter system to monitor the transcriptional activity of hTERT. Here, about 10^4 cells each were grown in 96-well plates and incubated at 37° C. for 24 hours and changed with fresh media. Varying amounts of drugs were added and cells were incubated for another 24 hours. Culture media were collected and heated at 65° C. for 10 min to inactivate heat-labile phosphatases. An equal amount of SEAP buffer (2 M diethanolamine, 1 mM MgCl2, and 20 mM L-homoarginine) was added to the media and p-nitrophenyl phosphate was added to a final concentration of 12 mM. Absorptions at 405 nm were taken, and the rate of absorption increase is determined (the increasing rate of absorbance at 405 nm was used to represent the activity of SEAP).
# [2] = tested on: H1299 cells
# Procedure: (§1) Further, cells were subjected to MTT assay to compare the relative toxicity or effect of each compound on cell proliferation and activity.
# (§2) The above-described cells are cultured in a 96-well plate, to which was added with 25 μl MTT solution, and cultured in a 37° C. carbon dioxide incubator for 4 hours. Then, 100 μl Lysis buffer is added and incubated in a 37° C. carbon dioxide incubator overnight. An ELISA reader (Bio-Rad Model 450) is used to read optical density (O.D.) at 550 nm.
# (§3) After being subjected to different compound treatments for 72 hours, cells were treated with a fixed amount of MTT solution for 28 hours. Then, DMSO was used to dissolve back formazan, an O. D. value was detected at wavelength in the range of 550/670 nm, and calculated accordingly the cell survival rate (as shown in Table 1).
# [3] = in vitro; details: human, Relative MTT viability (%)
# Procedure: as §1, §2, §3
Compound,activity at 1 µM ([1]; 1 μM),activity at 10 µM ([1]; 10 μM),activity at 100 µM [1],"Relative MTT viability (%) ([2]; human, 72 h, 10 µM)","Relative MTT viability (%) ([2]; human, 72 h, 100 µM)","viability at 72 h, 1 µM [3]","viability at 72 h, 10 µM [3]","viability at 72 h, 100 µM [3]",Relative SEAP activity (%) ([1]; 1 μM),Relative SEAP activity (%) ([1]; 10 μM),Relative MTT viability (%) ([2]; 1 µM),Relative MTT viability (%) ([2]; 10 µM)
"COc1cccc2c1C(=O)c1c(O)c3c(c(O)c1C2=O)C[C@@](O)(C(=O)CO)C[C@@H]3O[C@H]1C[C@H](N)[C@H](O)[C@H](C)O1 [doxorubicin, reference compound]",33.8 ± 3.22%,13.6 ± 3.56%,5.18 ± 4.01%,−9.79 ± 2.78%,−11.38 ± 4.34%,17.1 ± 5.37%,–,–,–,–,–,–
"O=C1c2ccccc2C(=O)c2c1ccc1nc(CCl)[nH]c21 [CL01, 2-(chloromethyl)-1H-anthra[1,2-d]imidazole-6,11-dione]",69.2 ± 1.89%,-0.58 ± 1.16%,2.87 ± 1.42%,–,−5.28 ± 1.13%,82.3 ± 6.19%,< 50%,–,–,–,–,–
"Nc1ccc2c(c1N)C(=O)c1ccccc1C2=O [1,2-diaminoanthraquinone, reference compound]",98.5 ± 11.7%,77.3 ± 11.6%,18.2 ± 4.45%,–,–,105 ± 9.37%,95.5 ± 3.75%,39.3 ± 8.84%,–,–,–,–
"COc1cccc(N2CCN(Cc3nc4ccc5c(c4[nH]3)C(=O)c3ccccc3C5=O)CC2)c1 [CL32, 2-((4-(3-methoxyphenyl)piperazin-1-yl)methyl)-1H-anthra[1,2-d]imidazole-6,11-dione]",105 ± 5.64%,< 50%,3.33%,–,–,81.3 ± 9.72%,> 50%,23.9%,–,–,–,–
"O=C1c2c(O)ccc(O)c2C(=O)c2c(NCCNCCO)ccc(NCCNCCO)c21 [mitoxantrone, reference compound]",20.8 ± 1.56%,9.92 ± 4.8%,7.19 ± 1.59%,−8.51 ± 1.13%,−0.44 ± 1.01%,23.7 ± 8.06%,–,–,–,–,–,–
"CN(Cc1nc2ccc3c(c2[nH]1)C(=O)c1ccccc1C3=O)Cc1c2ccccc2cc2ccccc12 [CL11, 2-(((anthracen-10-yl)-N-methylmethanamino)methyl)-1H-anthra[1,2-d]imidazole-6,11-dione]",–,–,–,–,–,–,–,–,101.69 ± 5.82%,77.46 ± 6.40%,98.03 ± 4.48%,83.80 ± 5.64%
"O=C1c2ccccc2C(=O)c2c1ccc1nc(CCN3CCN(c4ccccc4)CC3)[nH]c21 [CL37, 2-(2-(4-phenylpiperazin-1-yl)ethyl)-1H-anthra[1,2-d]imidazole-6,11-dione]",104 ± 4.96%,92.7%,36.6%,–,–,94 ± 0.98%,96.5%,–,–,–,–,–
